In patent EP0923576B1, “4-AMINOETHOXY-INDOLONE DERIVATIVES AS DOPAMINE D2 AGONISTS” (Wyeth, priority 1996, dated 1998):

Tests used:
dopamine D-2 receptor = molecular target: T1, dopamine D-2 receptor (Rattus norvegicus, UniProt P61169); assay: 3H-spiroperidol binding, affinity for the dopamine D-2 receptor in homogenized limbic brain tissue; conditions: for Ratio: ratio IC50 D2 Spiper / IC50 D2 Quin. (LowAg/HighAg), predicts intrinsic activity; for IC50: read-out: IC50 (nM) D2 Spiper
T1 construct: homogenized limbic brain tissue is incubated with ^3H-spiroperidol; from tissue
T1 sequence (P61169 whole entry): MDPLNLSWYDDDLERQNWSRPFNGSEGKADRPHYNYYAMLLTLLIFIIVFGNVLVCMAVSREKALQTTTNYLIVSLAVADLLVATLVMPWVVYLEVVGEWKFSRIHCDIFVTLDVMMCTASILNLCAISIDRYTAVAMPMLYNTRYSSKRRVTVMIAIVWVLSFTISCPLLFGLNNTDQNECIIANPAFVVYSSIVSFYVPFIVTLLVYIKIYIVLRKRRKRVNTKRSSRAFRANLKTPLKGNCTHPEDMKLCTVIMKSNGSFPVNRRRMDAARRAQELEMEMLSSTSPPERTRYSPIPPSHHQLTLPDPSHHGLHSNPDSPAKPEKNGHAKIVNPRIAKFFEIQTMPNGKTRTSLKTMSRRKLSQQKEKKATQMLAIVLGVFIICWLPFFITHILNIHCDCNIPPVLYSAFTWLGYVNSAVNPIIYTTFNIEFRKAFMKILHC

dopamine autoreceptor = dopamine autoreceptor (Rattus norvegicus, UniProt P61169); assay: 3H-quinpirole binding, affinity for the dopamine autoreceptor in homogenized striatal brain tissue
Sequence of dopamine autoreceptor (P61169 whole entry): as above

Row | Ratio (dopamine D-2 receptor) | IC50 (dopamine D-2 receptor) [nM] | IC50 (dopamine autoreceptor) [nM] | Compound
1 | 91 | 135 | 1.49 | CSC1C(=O)Nc2c(F)ccc(OCCNCc3ccsc3)c21 (stereo not drawn) [Example 1]
2 | 128 | 323 | 2.53 | O=C1Cc2c(OCCNCc3ccsc3)ccc(F)c2N1 [Example 3a]
3 | 293 | 398 | 1.36 | O=C1Cc2c(OCCNCc3cccs3)ccc(F)c2N1 [Example 3b, 4-[2-(Thien-2-ylmethyl)aminoethoxy]-7-fluoro-1,3-dihydro-indol-2-one]
4 | 37.7 | 26.7 | 0.71 | O=C1Cc2c(OCCNCc3ccsc3)ccc(Cl)c2N1 [Example 2b, 4-[2-(Thien-3-ylmethyl)aminoethoxy]-7-chloro 1,3-dihydro-indol-2-one]
5 | 30.5 | 33.5 | 1.1 | O=C1Cc2c(OCCNCc3cccs3)ccc(Cl)c2N1 [Example 2a, 4-[2-Thien-2-ylmethyl)aminoethoxyl-7-chloro-1,3-dihydro-indol-2-one]
